The NIST ThermoML archive (doi:10.1021/je700339f)

Experiment: xn = mol fraction of the nth substance listed
Conditions: 298 K, Liquid

ClCCCCCCCl [1,6-dichlorohexane] + CC(=O)N(C)C
mass density [kg/m3]
Conditions	x2 = 0.1002	x2 = 0.1985	x2 = 0.3002	x2 = 0.404	x2 = 0.4943	x2 = 0.6007	x2 = 0.7006	x2 = 0.8012	x2 = 0.8994
100 kPa	1054.5	1045.2	1034.5	1023.1	1012.3	998.8	985.3	970.4	954.6
500 kPa	1054.7	1045.5	1034.8	1023.4	1012.5	999	985.6	970.7	954.8
1000 kPa	1055.1	1045.9	1035.2	1023.7	1012.9	999.3	985.9	971	955.1
1500 kPa	1055.5	1046.2	1035.6	1024.1	1013.3	999.6	986.2	971.3	955.4
2000 kPa	1055.8	1046.6	1035.9	1024.4	1013.6	1000	986.5	971.6	955.7
2500 kPa	1056.2	1046.9	1036.2	1024.8	1013.9	1000.3	987	972	956.1
2900 kPa	–	–	–	–	1014.3	–	–	–	–
3000 kPa	1056.5	1047.3	1036.6	1025.1	–	1000.6	987.2	972.3	956.4
3500 kPa	1056.9	1047.6	1036.8	1025.4	1014.6	1001	987.6	972.6	956.6
4000 kPa	1057.2	1047.9	1037.2	1025.7	1014.9	1001.4	987.9	972.9	957
4500 kPa	1057.6	1048.3	1037.5	1026.1	1015.3	1001.6	988.2	973.2	957.2
5000 kPa	1057.9	1048.6	–	–	–	–	–	–	–
